Source: patent US20080091026A1, “NOVEL CRYSTAL OF N-[[(5S)-3-[4-(2,6-DIHYDRO-2-METHYLPYRROLO[3,4-C]PYRAZOL-5(4H)-YL)-3-FLUOROPHENYL]-2-OXO-5-OXAZOLIDINYL]METHYL]ACETAMIDE” (TRANSFORM PHARMACEUTICALS, INC., priority 2006, published 2008)

Legend:
[1] = solubility of the crystal form; type: physicochemical; settings: compared to prior known forms of the API
[2] = bioavailability of the crystal form; type: in vivo; settings: compared to prior known forms of the API
[3] = background statement; cited from earlier work

CC(=O)NC[C@H]1CN(c2ccc(N3Cc4cn(C)nc4C3)c(F)c2)C(=O)O1.O=C(O)CC(=O)O [Form α crystal]
solubility [1]: improved
bioavailability [2]: improved

CC(=O)NC[C@H]1CN(c2ccc(N3Cc4cn(C)nc4C3)c(F)c2)C(=O)O1 [N-[[(5S)-3-[4-(2,6-dihydro-2-methylpyrrolo[3,4-c]pyrazol-5(4H)-yl)-3-fluorophenyl]-2-oxo-5-oxazolidinyl]methyl]acetamide]
bioavailability in humans [3]: poor
